Here are results for eleven compounds from patent US11168073B2, “3,3-difluoroallylamines or salts thereof and pharmaceutical compositions comprising the same” (YUHAN CORPORATION, priority 2018, dated 2021).

Assay type in all cases: biochemical
One assay deals with T1, recombinant human VAP-1 (Homo sapiens, UniProt Q16853).
T1 construct: purchased R&D systems
T1 sequence (Q16853 1-763): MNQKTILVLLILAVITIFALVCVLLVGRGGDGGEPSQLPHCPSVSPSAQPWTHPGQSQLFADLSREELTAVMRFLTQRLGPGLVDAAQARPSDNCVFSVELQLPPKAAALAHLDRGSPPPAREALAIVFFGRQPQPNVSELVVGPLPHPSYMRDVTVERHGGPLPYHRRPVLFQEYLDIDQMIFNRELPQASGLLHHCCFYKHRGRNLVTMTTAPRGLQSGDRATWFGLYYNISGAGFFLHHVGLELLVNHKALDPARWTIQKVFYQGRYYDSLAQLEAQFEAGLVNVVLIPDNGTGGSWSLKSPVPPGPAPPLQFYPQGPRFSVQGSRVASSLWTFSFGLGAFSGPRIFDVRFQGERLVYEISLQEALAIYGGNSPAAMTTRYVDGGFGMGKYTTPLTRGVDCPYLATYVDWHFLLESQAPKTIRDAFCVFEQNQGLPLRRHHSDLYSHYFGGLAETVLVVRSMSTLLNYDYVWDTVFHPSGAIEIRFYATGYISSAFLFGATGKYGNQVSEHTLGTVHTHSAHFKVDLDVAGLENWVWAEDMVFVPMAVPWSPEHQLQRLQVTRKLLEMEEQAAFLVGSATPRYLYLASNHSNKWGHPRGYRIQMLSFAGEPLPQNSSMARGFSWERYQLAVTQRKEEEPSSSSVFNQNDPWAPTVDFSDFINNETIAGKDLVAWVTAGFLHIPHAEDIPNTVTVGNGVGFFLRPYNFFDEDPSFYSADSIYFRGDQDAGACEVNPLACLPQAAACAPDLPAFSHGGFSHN
The assay is described as follows: Activity evaluation on recombinant human VAP-1 (Amplex Red/HRP-coupled hydrogen peroxide assay, benzylamine substrate). Conditions: read-out: Inhibitory Activity (IC50, nM) human VAP-1. The method, boiled down:
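Hydrogen peroxide from benzylamine (1 mM) oxidation by human recombinant VAP-1 detected via HRP-coupled Amplex Red (200 uM) fluorescence, kinetic over 1–2 h. Enzyme and compound preincubated 30 min at 37 °C, pH 7.4 phosphate; 8-point dose response, signal-rate decrease versus DMSO control fitted to four-parameter logistic for IC50.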

In assay [1] the target is T2, recombinant human DAO (diamine oxidase) (Homo sapiens, UniProt P19801).
T2 construct: purchased R&D systems
T2 sequence (P19801 20-751): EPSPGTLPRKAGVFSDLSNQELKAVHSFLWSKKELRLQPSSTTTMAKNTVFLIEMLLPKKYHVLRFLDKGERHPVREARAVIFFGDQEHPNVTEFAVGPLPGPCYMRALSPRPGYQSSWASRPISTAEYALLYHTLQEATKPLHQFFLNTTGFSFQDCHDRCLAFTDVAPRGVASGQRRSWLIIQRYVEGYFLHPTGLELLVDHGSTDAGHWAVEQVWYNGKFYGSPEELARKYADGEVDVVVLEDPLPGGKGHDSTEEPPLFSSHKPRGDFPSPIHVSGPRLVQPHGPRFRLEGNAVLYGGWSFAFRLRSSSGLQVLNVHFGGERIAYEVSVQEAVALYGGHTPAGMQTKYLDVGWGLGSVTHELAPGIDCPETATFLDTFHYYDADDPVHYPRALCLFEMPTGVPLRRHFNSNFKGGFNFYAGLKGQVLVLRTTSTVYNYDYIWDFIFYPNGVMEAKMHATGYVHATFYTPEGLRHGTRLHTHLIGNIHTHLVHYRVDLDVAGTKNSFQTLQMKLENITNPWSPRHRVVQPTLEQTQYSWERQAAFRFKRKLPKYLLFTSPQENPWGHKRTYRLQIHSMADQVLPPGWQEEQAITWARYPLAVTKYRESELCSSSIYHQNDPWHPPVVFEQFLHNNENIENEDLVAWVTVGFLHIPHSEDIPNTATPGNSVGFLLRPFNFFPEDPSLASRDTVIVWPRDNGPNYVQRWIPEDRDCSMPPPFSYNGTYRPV
The assay can be described thus: Activity evaluation on recombinant human DAO (Amplex Red/HRP-coupled assay, 1 mM putrescine substrate). Conditions: read-out: Inhibitory Activity (IC50, nM) DAO. The method, boiled down: (§1)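 Each oxidase is tested with its own substrate: MAO-A with 0.5 mM tyramine, MAO-B with 1 mM benzylamine, DAO with 1 mM putrescine. After 30 min enzyme-compound preincubation at 37 °C, Amplex Red (200 uM) plus HRP (1 U/mL) reports H2O2 as fluorescence; IC50 is fitted from eight-point curves.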

The target of assay [2] is T3, recombinant human MAO-B (monoamine oxidase-B) (Homo sapiens, UniProt P27338).
T3 construct: purchased Sigma-Aldrich
T3 sequence (P27338 1-520): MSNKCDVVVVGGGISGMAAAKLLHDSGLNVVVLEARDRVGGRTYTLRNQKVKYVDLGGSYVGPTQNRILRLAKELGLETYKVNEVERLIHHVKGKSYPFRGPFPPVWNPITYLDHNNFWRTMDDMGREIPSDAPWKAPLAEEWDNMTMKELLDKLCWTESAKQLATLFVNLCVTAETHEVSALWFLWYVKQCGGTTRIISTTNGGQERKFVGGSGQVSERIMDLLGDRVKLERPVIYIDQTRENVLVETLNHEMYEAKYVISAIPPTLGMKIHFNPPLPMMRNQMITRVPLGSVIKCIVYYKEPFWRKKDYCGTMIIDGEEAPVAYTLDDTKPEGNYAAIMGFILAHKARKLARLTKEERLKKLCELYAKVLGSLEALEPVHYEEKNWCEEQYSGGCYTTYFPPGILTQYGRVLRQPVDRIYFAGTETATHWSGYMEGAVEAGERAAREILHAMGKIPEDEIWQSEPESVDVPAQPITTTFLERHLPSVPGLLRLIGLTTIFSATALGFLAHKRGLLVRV
The assay can be described thus: Activity evaluation on recombinant human MAO-B (Amplex Red/HRP-coupled assay, 1 mM benzylamine substrate). Conditions: read-out: Inhibitory Activity (IC50, nM) MAO-B. The method, boiled down:
as §1

Assay [3] addresses T4, recombinant human MAO-A (monoamine oxidase-A) (Homo sapiens, UniProt P21397).
T4 construct: purchased Sigma-Aldrich
T4 sequence (P21397 1-527): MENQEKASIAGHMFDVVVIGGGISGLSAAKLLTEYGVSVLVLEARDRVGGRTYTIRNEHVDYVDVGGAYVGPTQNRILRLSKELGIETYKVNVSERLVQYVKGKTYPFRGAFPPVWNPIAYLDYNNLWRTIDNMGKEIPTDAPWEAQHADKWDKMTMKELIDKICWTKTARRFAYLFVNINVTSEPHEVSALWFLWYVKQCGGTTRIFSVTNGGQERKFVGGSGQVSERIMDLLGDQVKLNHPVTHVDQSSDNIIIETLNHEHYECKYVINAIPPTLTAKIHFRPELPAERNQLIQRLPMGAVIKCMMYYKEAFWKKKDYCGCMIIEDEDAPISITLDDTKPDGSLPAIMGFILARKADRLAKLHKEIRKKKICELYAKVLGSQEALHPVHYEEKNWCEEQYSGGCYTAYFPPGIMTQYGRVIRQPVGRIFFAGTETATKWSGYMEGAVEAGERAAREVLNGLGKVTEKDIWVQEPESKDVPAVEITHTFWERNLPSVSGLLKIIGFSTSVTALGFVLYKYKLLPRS
The assay can be described thus: Activity evaluation on recombinant human MAO-A (Amplex Red/HRP-coupled assay, 0.5 mM tyramine substrate). As to conditions: read-out: Inhibitory Activity (IC50, nM) MAO-A. The procedure, abridged: as §1

Setting [4] is: recombinant human VAP-1, 30 min preincubation at 37° C., 1 mM benzylamine.
Setting [5] is: recombinant human VAP-1, benzylamine substrate.

The structures appear in SMILES notation. Counter-ions that a name gives are not always drawn. Like-named read-outs stand apart in the source and are kept apart here.

One may read the IC50 as the point on the concentration scale where inhibition reaches its midpoint. For the compound `Cc1cc(-c2ccc(N(C)C)nc2)sc1Cn1cnn(CC(CN)=C(F)F)c1=O` [Example 157, 2-[2-(aminomethyl)-3,3-difluoro-allyl]-4-[[5-[6-(dimethylamino)-3-pyridyl]-3-methyl-2-thienyl]methyl]-1,2,4-triazol-3-one Trifluoroacetate], the IC50 on recombinant human VAP-1 (setting [4]) was 2.3 nM; in assay [1] (1 mM putrescine), above 100000 nM; in assay [2] (1 mM benzylamine), above 100000 nM; in assay [3] (0.5 mM tyramine) it was above 100000 nM.
Regarding `CN1C(=O)COc2cc(-c3ccc(Cn4cnn(CC(CN)=C(F)F)c4=O)s3)ccc21` [Example 144, 7-[5-[[1-[2-(aminomethyl)-3,3-difluoro-allyl]-5-oxo-1,2,4-triazol-4-yl]methyl]-2-thienyl]-4-methyl-1,4-benzoxazin-3-one Trifluoroacetate], the IC50 at recombinant human VAP-1 (setting [4]) is 0.7 nM; in assay [1] (1 mM putrescine), above 10000 nM; in assay [2] (1 mM benzylamine), above 100000 nM; in assay [3] (0.5 mM tyramine), above 100000 nM.
Regarding `NCC(Cn1ncn(Cc2ccc(-c3ccn4ncnc4c3)s2)c1=O)=C(F)F` [Example 128, 2-[2-(aminomethyl)-3,3-difluoro-allyl]-4-[[5-([1,2,4]triazolo[1,5-a]pyridin-7-yl)-2-thienyl]methyl]-1,2,4-triazol-3-one Trifluoroacetate], the 50% inhibitory concentration (IC50) is 0.7 nM on recombinant human VAP-1 (setting [4]), 97000 nM in assay [1] (1 mM putrescine), above 100000 nM in assay [2] (1 mM benzylamine) and above 100000 nM in assay [3] (0.5 mM tyramine).
As to `NCC(Cn1ncn(Cc2cc(-c3cccc(-c4nc[nH]n4)c3)cs2)c1=O)=C(F)F` [Example 196, 2-[2-(aminomethyl)-3,3-difluoro-allyl]-4-[[4-[3-(1H-1,2,4-triazol-3-yl)phenyl]-2-thienyl]methyl]-1,2,4-triazol-3-one Trifluoroacetate], the 50% inhibitory concentration (IC50) is 1.4 nM on recombinant human VAP-1 (setting [5]), 1900 nM in assay [1] (1 mM putrescine substrate), 2900 nM in assay [2] (1 mM benzylamine substrate) and above 100000 nM in assay [3] (0.5 mM tyramine substrate).
For the compound `NCC(Cn1ncn(Cc2ccc(C#Cc3cnc4c(c3)NC(=O)CO4)s2)c1=O)=C(F)F` [Example 169, 7-[2-[5-[[1-[2-(aminomethyl)-3,3-difluoro-allyl]-5-oxo-1,2,4-triazol-4-yl]methyl]-2-thienyl]ethynyl]-1H-pyrido[2,3-b][1,4]oxazin-2-one Trifluoroacetate], the IC50 at recombinant human VAP-1 (setting [4]) was 0.2 nM; in assay [1] (1 mM putrescine) it was above 100000 nM; in assay [2] (1 mM benzylamine), above 100000 nM; in assay [3] (0.5 mM tyramine), above 100000 nM.
On to `CN(C)c1ccc(-c2ccc3cc(Cn4cnn(CC(CN)=C(F)F)c4=O)sc3c2)cn1` [Example 200, 2-[2-(aminomethyl)-3,3-difluoro-allyl]-4-[[6-[6-(dimethylamino)-3-pyridyl]benzothiophen-2-yl]methyl]-1,2,4-triazol-3-one Trifluoroacetate], for which the half-inhibitory concentration (IC50) is 1.9 nM at recombinant human VAP-1 (setting [5]), above 100000 nM in assay [1] (1 mM putrescine substrate), 740 nM in assay [2] (1 mM benzylamine substrate) and above 100000 nM in assay [3] (0.5 mM tyramine substrate).
Regarding `CS(=O)(=O)c1ccc(-c2ccc(CCn3cnn(CC(CN)=C(F)F)c3=O)s2)cc1` [Example 173, 2-[2-(aminomethyl)-3,3-difluoro-allyl]-4-[2-[5-(4-methylsulfonylphenyl)-2-thienyl]ethyl]-1,2,4-triazol-3-one trifluoroacetate], the IC50 on recombinant human VAP-1 (setting [4]) was 0.3 nM; in assay [1] (1 mM putrescine), 260 nM; in assay [2] (1 mM benzylamine), 69000 nM; in assay [3] (0.5 mM tyramine), above 100000 nM.
As to `NCC(Cn1ncn(-c2cc(-c3ccc(C(F)(F)F)nc3)ccn2)c1=O)=C(F)F` [Example 56, 2-[2-(aminomethyl)-3,3-difluoro-allyl]-4-[4-[6-(trifluoromethyl)-3-pyridyl]-2-pyridyl]-1,2,4-triazol-3-one Trifluoroacetate], the half-maximal inhibitory concentration (IC50) is 1.6 nM on recombinant human VAP-1 (setting [4]), 75 nM in assay [1] (1 mM putrescine), 79600 nM in assay [2] (1 mM benzylamine) and above 100000 nM in assay [3] (0.5 mM tyramine).
Consider `NCC(Cn1ncn(-c2cccc(-c3ccc4c(c3)OCO4)c2)c1=O)=C(F)F` [Example 21, 2-[2-(aminomethyl)-3,3-difluoro-allyl]-4-[3-(1,3-benzodioxol-5-yl)phenyl]-1,2,4-triazol-3-one Trifluoroacetate], for which the IC50 on recombinant human VAP-1 (setting [4]) is 2.5 nM; in assay [1] (1 mM putrescine), 6300 nM; in assay [2] (1 mM benzylamine), 18000 nM; in assay [3] (0.5 mM tyramine), 36200 nM.
Take `NCC(Cn1ncn(-c2ncc(Br)cc2F)c1=O)=C(F)F` [Example 14, 2-[2-(aminomethyl)-3,3-difluoro-allyl]-4-(5-bromo-3-fluoro-2-pyridyl)-1,2,4-triazol-3-one Trifluoroacetate]: the half-maximal inhibitory concentration (IC50) is 1.4 nM at recombinant human VAP-1 (setting [4]), 4100 nM in assay [1] (1 mM putrescine), 40000 nM in assay [2] (1 mM benzylamine) and above 100000 nM in assay [3] (0.5 mM tyramine).
`CN(C)c1ccc(-c2ccc(-n3cnn(CC(CN)=C(F)F)c3=O)cc2F)cn1` [Example 27, 2-[2-(aminomethyl)-3,3-difluoro-allyl]-4-[4-[6-(dimethylamino)-3-pyridyl]-3-fluoro-phenyl]-1,2,4-triazol-3-one Trifluoroacetate]: the IC50 at recombinant human VAP-1 (setting [4]) was 0.4 nM; in assay [1] (1 mM putrescine) it was 380 nM; in assay [2] (1 mM benzylamine), 350 nM; in assay [3] (0.5 mM tyramine) it was above 100000 nM.
